{
  "source": "paper PMC3901259",
  "about": "“Characterisation of the Metabolites of 1,8-Cineole Transferred into Human Milk: Concentrations and Ratio of Enantiomers” (Metabolites, 2013)",
  "assay": "Determination of the ratios of enantiomers of chiral metabolites in human milk on chiral GC capillaries",
  "type": "in vivo",
  "description": "The separation of the chiral metabolites of 1,8-cineole was successfully achieved using different β- or γ-cyclodextrin-based stationary phases (Rt-bDEXsa, Rt-bDEXse, Rt-bDEXsm and Rt-yDEXsa) for gas chromatographic analysis. Table S1, in the supplementary material, lists the usable separation phases and the respective retention indices (determined according to van den Dool and Kratz) for each pair of enantiomers. It was therefore decided to use the following capillaries for the analysis of the human milk samples: Rt-bDEXsm for separation of 2,3-dehydro-, α2,3-epoxy-, 2-oxo-, 3-oxo- and 9-hydroxy-1,8-cineole, and Rt-yDEXsa for separation of α2-hydroxy-, α3-hydroxy- and β2-hydroxy-1,8-cineole, under the GC conditions described in the experimental section.\nFor GC-MS analyses, an Agilent MSD quadrupole system (GC 7890A with MSD 5975C, Agilent Technologies, Waldbronn, Germany) coupled with a CIS 4C (cooled injection system) and an MPS 2 auto-sampler (Gerstel GmbH & Co. KG, Duisburg, Germany) were used. Data collection and analysis were performed with the MSD ChemStation E.02.00.493 (Agilent Technologies, Inc.) software. Quantification experiments were carried out on DB-FFAP and DB-5 capillaries (30 m length, 0.25 mm inner diameter, 0.25 µm film thickness, Agilent J&W GC Columns, USA), and for monitoring of the ratio of enantiomers the chiral capillaries Rt-bDEXsa, Rt-bDEXse, Rt-bDEXsm and Rt-yDEXsa (30 m length, 0.32 mm inner diameter, 0.25 µm film thickness, Restek GmbH, Bad Homburg, Germany) were utilised. Pre-columns of uncoated, deactivated fused silica (0.53 mm inner diameter, 0.5 to 3.5 m length) were used to ensure that no potentially present low-volatile residues could contaminate the analytical capillaries. The temperature programme of the column oven was as follows: 40 °C for 2 min, 4 °C/min up to 170 °C, 40 °C/min up to 230 °C (Rt-DEX capillaries), 240 °C (DB-FFAP) and 250 °C (DB-5), respectively, and hold time at end temperature of 5 to 10 min. As carrier gas, helium was used at a flow rate of 1.3 mL/min (velocity 41.1 cm/s). Injection of 1 or 2 µL was performed by the auto-sampler.\nFor the separation of the pairs of enantiomers of the chiral metabolites of 1,8-cineole, four different capillaries (Rt-bDEXsa, Rt-bDEXse, Rt-bDEXsm, and Rt-yDEXsa) were evaluated for optimisation of the peak-to-peak resolution of the enantiomers by injecting a mixture of all the metabolites in a dichloromethane solution and by varying the heating rate. Besides the separation of each pair of enantiomers from each other, it was also important to confirm that no other metabolite coeluted with any one of the enantiomers, because the milk samples would most probably contain all metabolites. Moreover, the separation conditions for the mixture of reference substances were also tested on some human milk sample extracts and modified accordingly, where necessary, to avoid coelution with interfering matrix compounds.\nFor calculation of the ratio of enantiomers (that is, the relative abundance of each enantiomer to the not separated mixture of enantiomers), the peak area of each enantiomer was divided by the sum of the peak areas of both enantiomers and multiplied by 100. With the known concentrations of the chiral metabolites in each milk sample, the absolute concentration of each single enantiomer was also calculated by multiplying the concentration with the respective percentage.",
  "data": [
    {"smiles": "CC1(C)OC2(C)CCC1CC2O", "note": "(stereo not drawn) [a2-hydroxy-1,8-cineole, α2-hydroxy-1,8-cineole]", "values": [
      {"measurement": "Enantiomeric ratio in human milk", "result": "nearly enantiomerically pure"},
      {"measurement": "Percentage E1 in single sample (outlier)", "setting": "human milk sample B-2a, excluded from Table 3", "result": 40.5, "unit": "%"},
      {"measurement": "Percentage E1, range as described for boxplot", "setting": "human milk samples, Figure 5", "result": "under 10%"}
    ]}
  ]
}
